Some results are limits rather than exact numbers.

In this test the target is T1, recombinant human PDK1 (amino acids 51-556) (Homo sapiens, UniProt O15530).
T1 construct: containing amino acids 51-556 of the human PDK1 enzyme; made in house
T1 sequence (O15530 51-556): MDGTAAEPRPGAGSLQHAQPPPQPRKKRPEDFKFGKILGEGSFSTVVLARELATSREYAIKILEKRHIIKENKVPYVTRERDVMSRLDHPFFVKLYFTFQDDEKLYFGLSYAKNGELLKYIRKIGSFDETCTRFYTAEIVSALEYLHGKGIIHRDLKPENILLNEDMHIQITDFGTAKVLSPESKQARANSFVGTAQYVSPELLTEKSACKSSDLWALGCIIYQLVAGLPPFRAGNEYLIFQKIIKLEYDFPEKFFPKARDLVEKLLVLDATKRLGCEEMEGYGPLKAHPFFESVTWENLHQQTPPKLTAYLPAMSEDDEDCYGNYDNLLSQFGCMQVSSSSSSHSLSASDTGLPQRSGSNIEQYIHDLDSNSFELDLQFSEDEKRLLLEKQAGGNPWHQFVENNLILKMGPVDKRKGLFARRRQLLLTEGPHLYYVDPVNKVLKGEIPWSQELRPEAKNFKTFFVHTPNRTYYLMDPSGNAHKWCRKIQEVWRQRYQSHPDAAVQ
Nature of the test: PDK1 IMAP fluorescence polarization kinase assay. Type of test: biochemical. The settings on record: 10 nM PDK1, 100 nM peptide substrate, 100 nM PIFtide, 2.5 uM ATP, 1.5 hours; rated A-D.
Turning to `CC(c1ccccc1)n1cc(-c2nc(C(=O)Nc3cc(N)ccc3N3CCC[C@@H](N)C3)cs2)cn1` (stereo partly drawn) [Compound 30, N-[5-amino-2-(3(R)-amino-1-piperidinyl)phenyl]-2-[1-(1-phenylethyl)-1H-pyrazol-4-yl]-4-thiazolecarboxamide], the IC50 (in general, the concentration that gives 50% inhibition) lay within 51 to 250 nM.

`N[C@@H]1CCCN(c2c(F)cccc2NC(=O)c2csc(-c3cnn(Cc4cccnc4)c3)n2)C1` [Compound 31, N-[2-(3(R)-amino-1-piperidinyl)-3-fluorophenyl]-2-[1-(3-pyridinylmethyl)-1H-pyrazol-4-yl]-4-thiazolecarboxamide]: the IC50 was in the range of 51 to 250 nM.

`N[C@@H]1CCCN(c2c(F)cccc2NC(=O)c2csc(-c3cnn(Cc4c(F)cccc4F)c3)n2)C1` [Compound 32, N-[2-(3(R)-amino-1-piperidinyl)-3-fluorophenyl]-2-[1-[(2,6-difluorophenyl)methyl]-1H-pyrazol-4-yl]-4-thiazolecarboxamide]: the IC50 lay within 51 to 250 nM.

As to `N[C@@H]1CCCN(c2c(F)cccc2NC(=O)c2csc(-c3cnn(Cc4ccccc4OC(F)(F)F)c3)n2)C1` [Compound 33, N-[2-(3(R)-amino-1-piperidinyl)-3-fluorophenyl]-2-[1-[[2-(trifluoromethoxy)phenyl]methyl]-1H-pyrazol-4-yl]-4-thiazolecarboxamide], the IC50 is greater than 1000 nM.

For the compound `Nc1ccc(N2CCC3(CC2)OCCO3)c(NC(=O)c2csc(-c3cnn(Cc4cccs4)c3)n2)c1` [Compound 34, N-[5-amino-2-(1,4-dioxa-8-azaspiro[4.5]dec-8-yl)phenyl]-2-[1-(2-thienylmethyl)-1H-pyrazol-4-yl]-4-thiazolecarboxamide], the IC50 was in the range of 51 to 250 nM.

For the compound `N[C@@H]1CCCN(c2c(F)cccc2NC(=O)c2csc(-c3cnn(Cc4c(F)cccc4C(F)(F)F)c3)n2)C1` [Compound 35, N-[2-(3(R)-amino-1-piperidinyl)-3-fluorophenyl]-2-[1-[[2-fluoro-6-(trifluoromethyl)phenyl]methyl]-1H-pyrazol-4-yl]-4-thiazolecarboxamide], the IC50 is greater than 1000 nM.

On to `N[C@@H]1CCCN(c2c(F)cccc2NC(=O)c2csc(-c3cnn(Cc4ccccc4OC(F)F)c3)n2)C1` [Compound 36, N-[2-(3(R)-amino-1-piperidinyl)-3-fluorophenyl]-2-[1-[[2-(difluoromethoxy)phenyl]methyl]-1H-pyrazol-4-yl]-4-thiazolecarboxamide], for which the IC50 is 251 to 1000 nM.

As for `N[C@@H]1CCCN(c2c(F)cccc2NC(=O)c2csc(-c3cnn(Cc4ccccc4SC(F)(F)F)c3)n2)C1` [Compound 37, N-[2-(3(R)-amino-1-piperidinyl)-3-fluorophenyl]-2-[1-[[2-[(trifluoromethyl)thio]phenyl]methyl]-1H-pyrazol-4-yl]-4-thiazolecarboxamide], the concentration for half-maximal inhibition (IC50) is greater than 1000 nM.

With `N[C@@H]1CCCN(c2c(F)cccc2NC(=O)c2csc(-c3cnn(Cc4c(F)cc(F)cc4F)c3)n2)C1` [Compound 38, N-[2-(3(R)-amino-1-piperidinyl)-3-fluorophenyl]-2-[1-[(2,4,6-trifluorophenyl)methyl]-1H-pyrazol-4-yl]-4-thiazolecarboxamide], the half-maximal inhibitory concentration (IC50) is 251 to 1000 nM.

Take `O=C(Nc1ccccc1N1CCNCC1)c1csc(-c2cnn(Cc3cc(F)ccc3F)c2)n1` [Compound 39, 2-[1-[(2,5-difluorophenyl)methyl]-1H-pyrazol-4-yl]-N-[2-(1-piperazinyl)phenyl]-4-thiazolecarboxamide]: the IC50 was 251 to 1000 nM.

`N[C@@H]1CCCN(c2c(F)cccc2NC(=O)c2csc(-c3cnn(CCOCc4ccccc4)c3)n2)C1` [Compound 40, N-[2-(3(R)-amino-1-piperidinyl)-3-fluorophenyl]-2-[1-[2-(phenylmethoxy)ethyl]-1H-pyrazol-4-yl]-4-thiazolecarboxamide]: the IC50 is 251 to 1000 nM.

Turning to `N[C@@H]1CCCN(c2c(F)cccc2NC(=O)c2csc(-c3cnn(Cc4ccccc4CO)c3)n2)C1` [Compound 42, N-[2-(3(R)-amino-1-piperidinyl)-3-fluorophenyl]-2-[1-[[2-(hydroxymethyl)phenyl]methyl]-1H-pyrazol-4-yl]-4-thiazolecarboxamide], the IC50 lay within 51 to 250 nM.

The record behind these values is patent US20130165450A1, “Novel Thiazol-Carboximide Derivatives as PDK1 Inhibitors” (priority 2010, published 2013).
